The record followed here is PubChem BioAssay (NCI).

What all share (assay): NCI-60 cell line screen, 48 h
Test [1] concerns SN12C renal.
In test [2] the test system is RXF 393 renal.
Test [3] deals with SR leukemia.
Test [4] has as its system U251 CNS.
The test system of test [5] is SW-620 colon.
Test [6] has as its system MCF7 breast.
Test [7] has as its system BT-549 breast.
The subject of test [8] is TK-10 renal.
For test [9], the system named is OVCAR-3 ovarian.
The test system of test [10] is SK-MEL-2 melanoma.

SMILES strings stand for the structures.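 Grown in 96-well plates, cells were treated for 48 hours with each compound at five concentrations. Insufficient inhibition: endpoint recorded as highest concentration tested. GI50: concentration for 50% inhibition of growth. The concentration for full growth arrest is given as TGI.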

Take `CCCCON(OC(=O)c1ccccc1)C(=O)c1ccccc1`: the GI50 was over 100 µM in test [1]; over 100 µM in test [2]; 30.3 µM in test [3]; over 100 µM in test [4]; over 100 µM in test [5]; over 100 µM in test [6]. The GI50 in test [7], in test [8], in [9] and in [10] was over 100 µM each time. For the same molecule, the TGI in [1], in test [2], in test [3], in test [4], in test [5] and in test [6] was over 100 µM each time. Also, the TGI in test [7], in test [8], in [9] and in test [10] was over 100 µM each time.

In the case of `CC12CCC3C(CCC4Cc5[nH]c6ccccc6c5CC43C)C1CCC2O` (stereo not given), the GI50 in test [1] is 4.09 µM; in test [2], 0.738 µM; in [3], 0.342 µM; in [4], 0.646 µM; in test [5], 0.497 µM; in test [6], 0.373 µM. For the same molecule, the GI50 was 2.65 µM in test [7], 2.73 µM in test [8], 0.26 µM in test [9] and 4.28 µM in test [10]. In addition, the TGI in test [1] is over 100 µM; in test [2], 3.31 µM; in [3], 1.32 µM; in [4], over 48 µM; in test [5] it was over 100 µM; in test [6], over 100 µM. Further, the TGI in test [7] was over 100 µM; in [8], over 100 µM; in test [9], 0.719 µM; in test [10] it was over 100 µM.

In the case of `COc1cccc(C2c3cc4c(cc3OC(C)(N3CCCC3)C2C)OCO4)c1OC` (stereo not given), the TGI in test [1] was 41.6 µM; in test [2], 86.7 µM; in test [3] it was 22.5 µM; in test [4], 24.5 µM; in [5], over 100 µM; in [6], 98.6 µM. Also, the TGI in test [7] was 32.6 µM; in test [8] it was 89.1 µM; in [9] it was 25.4 µM; in test [10] it was 27 µM.

As to `Clc1ccc(CSC(Cn2ccnc2)c2ccc(Cl)cc2Cl)cc1` (stereo not given), the GI50 is 1.53 µM in [1]; 1.43 µM in test [2]; 2.3 µM in test [3]; 1.39 µM in [4]; 1.59 µM in [5]; 1.6 µM in [6]. Besides, the GI50 was 1.63 µM in test [7], 1.53 µM in test [8], 1.54 µM in test [9] and 1.52 µM in [10]. Further, the TGI in test [1] was found to be 2.87 µM; in test [2], 2.76 µM; in test [3], 5.8 µM; in test [4], 2.68 µM; in test [5] it was 3.1 µM; in test [6] it was 2.99 µM. Further, the TGI in test [7] amounted to 3.05 µM; in test [8] it was 2.89 µM; in [9], 2.87 µM; in test [10], 3 µM.

Take `CC1(C)N=C(N)N=C(N)N1c1cccc(CCCCc2cccc(S(=O)(=O)F)c2)c1`: the GI50 is 0.571 µM in [1]; 2.13 µM in test [2]; 0.355 µM in test [3]; 0.456 µM in [4]; 0.342 µM in test [5]; 0.485 µM in [6]. In addition, the GI50 in [7] is 0.973 µM; in test [8], 4.85 µM; in [9], 4.29 µM; in [10], 2.73 µM. Moreover, the TGI was over 100 µM in test [1]; over 100 µM in test [2]; 33.2 µM in test [3]; 36 µM in test [4]; over 100 µM in test [5]; 24.9 µM in test [6]. Also, the TGI in test [7] is over 43.1 µM; in test [8], over 100 µM; in [9] it was 27.1 µM; in [10], over 58.5 µM.

As to `COc1ccc(C(=O)c2cc(OC)c(OC)c(OC)c2)cc1`, the TGI is over 100 µM in [1]; over 100 µM in test [2]; 4.49 µM in test [3]; 9.74 µM in test [4]; over 100 µM in test [5]; over 100 µM in test [6]. Besides, the TGI in [7] is over 100 µM; in test [8], over 100 µM; in test [9] it was 0.283 µM; in test [10], over 100 µM.

In the case of `Cn1cc(-c2ccc3c(Nc4cccc(NC(=O)Nc5cccc(F)c5)c4)ncnc3c2)cn1`, the GI50 in [1] is 1.6 µM; in [2] it was 1.2 µM; in test [3] it was 1.24 µM; in [4], 1.79 µM; in [5], 1.9 µM; in test [6] it was 1.14 µM. Also, the GI50 in test [7] is 4.04 µM; in [8], 2.72 µM; in test [9] it was 1.51 µM; in test [10], 4.43 µM. In addition, the TGI is 4.29 µM in [1]; 3.83 µM in test [2]; over 100 µM in test [3]; 5.07 µM in [4]; 4.45 µM in test [5]; 5.07 µM in [6]. For the same molecule, the TGI in test [7] amounted to 16 µM; in [8], 10.2 µM; in test [9], 3.27 µM; in test [10], 17.8 µM.

Consider `CCSCC1CC(O)(c2ccccc2)C(c2ccccc2)C(c2ccc(Cl)cc2)O1` (stereo not given), for which the GI50 in test [1] was 1.52 µM; in test [2], 0.688 µM; in test [3], 2.15 µM; in test [4], 1.63 µM; in test [5], 1.82 µM; in test [6], 1.85 µM. Besides, the GI50 in test [7] is 1.76 µM; in test [8], 2.27 µM; in test [9] it was 1.74 µM; in test [10], 1.73 µM. The TGI in test [1] amounted to 3.13 µM; in test [2], 2.06 µM; in test [3], 5.99 µM; in test [4], 3.32 µM; in [5] it was 4.39 µM; in test [6] it was 5.35 µM. For the same molecule, the TGI in test [7] was 3.63 µM; in test [8], 5.4 µM; in test [9], 4.2 µM; in [10], 3.5 µM.

`COC(=O)[C@@]12C(=O)C=CC(=O)[C@@H]1C1C(=CC2COC(C)=O)O[C@@H]2OC3(CCCCC3)O[C@H]12` (stereo not given in full): the TGI in test [1] was 29.1 µM; in test [2], 23.4 µM; in test [3] it was over 100 µM; in [4], 29.2 µM; in [5] it was 12.1 µM; in test [6] it was 32.3 µM. Also, the TGI in [7] came to 26 µM; in test [8] it was 20.6 µM; in test [9] it was 17.1 µM; in test [10] it was 37.3 µM.

Turning to `CCNC(=O)[C@@H]1CCCN2C(=O)CC[C@H](NC(=O)[C@H](Cc3ccc(OP(=O)(O)O)cc3)NC(C)=O)C(=O)N12`, the GI50 in test [1], in [2], in [3], in [4], in [5] and in test [6] was over 25 µM each time. Further, the GI50 in test [7], in test [8], in [9] and in test [10] was over 25 µM each time. The TGI in test [1], in test [2], in [3], in test [4], in test [5] and in test [6] was over 25 µM in each case. Besides, the TGI in test [7], in test [8], in test [9] and in [10] was over 25 µM each time.
